In PubChem BioAssay (NCI) one finds TGI data, which are given here for 7 compounds.

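Results reflect a 48-hour exposure of cells in 96-well plates to compound at five concentrations. TGI: total growth inhibition.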

What all share (experiment): NCI anticancer screen, dose series, 48 h
For assay [1], the system named is HOP-62 NSCLC.
Assay [2] concerns SNB-19 CNS.
Assay [3] concerns UACC-257 melanoma.
Assay [4] deals with BT-549 breast.
The test system of assay [5] is NCI-H522 lung.
Assay [6] relates to DU-145 prostate.
Assay [7] relates to RPMI-8226 leukemia.
The test system of assay [8] is CCRF-CEM leukemia.
The test system of assay [9] is IGROV1 ovarian.
Assay [10] relates to HOP-92 NSCLC.
Assay [11] concerns HCT-15 colon.
Assay [12] concerns M14 melanoma.
The subject of assay [13] is SW-620 colon.
In assay [14] the test system is KM12 colon.
The subject of assay [15] is U251 CNS.
The test system of assay [16] is MDA-N.
The subject of assay [17] is NCI-H460 lung.
The subject of assay [18] is OVCAR-5 ovarian.
The subject of assay [19] is SNB-75 CNS.

For `Nc1ccc(S(=O)(=O)Nc2ccc(Nc3c4ccccc4nc4ccccc34)cc2)cc1`, the TGI came to 0.0805 µM in [1]; 9.54 µM in assay [2]; 20.2 µM in assay [3]; 0.981 µM in assay [4]; 3.95 µM in [5]; 0.0188 µM in assay [6]. The TGI in [7] was 4.06 µM; in [8], greater than 4.64 µM; in assay [9], 19.7 µM; in [10], 4.84 µM; in [11], 17.7 µM; in assay [12], 17.5 µM. The TGI in assay [13] worked out at 14.3 µM; in [14], 4.59 µM; in assay [15], 4.94 µM; in assay [16], 22.8 µM; in assay [17], 2.11 µM; in assay [18], 12.9 µM. The compound also displayed a TGI in assay [19] of 0.963 µM.
Take `COc1ccc(C2=NN(C(N)=S)C(c3ccccc3)C2)cc1` (configuration not stated): the TGI in [1] is greater than 100 µM; in [2] it was greater than 100 µM; in assay [3], 99.1 µM; in assay [4], greater than 100 µM; in [5], 84.1 µM; in assay [6], greater than 100 µM. In addition, the TGI in assay [7] was 74.8 µM; in [8], greater than 100 µM; in assay [9] it was greater than 100 µM; in assay [10] it was greater than 100 µM; in [11] it was greater than 100 µM; in [12], greater than 100 µM. Also, the TGI in [13], in [14], in assay [15], in assay [16], in assay [17] and in [18] was greater than 100 µM throughout. The same compound came in with a TGI in assay [19] of 87.5 µM.
In the case of `Nc1ccc(CCSSCCc2ccc(N)cc2)cc1`, the TGI in [1] is greater than 100 µM; in [2], greater than 100 µM; in assay [3], 51.7 µM; in assay [4], 79.1 µM; in assay [5] it was 34.9 µM; in assay [6] it was greater than 87.4 µM. Also, the TGI is greater than 81.8 µM in [7]; greater than 100 µM in [8]; greater than 100 µM in assay [9]; greater than 100 µM in [10]; greater than 67.9 µM in assay [11]; greater than 74.2 µM in assay [12]. Further, the TGI is greater than 76.8 µM in assay [13]; greater than 100 µM in assay [14]; 41.6 µM in assay [15]; greater than 79.6 µM in [16]; 86.8 µM in assay [17]; 83.5 µM in assay [18]. Moreover, the TGI in assay [19] is greater than 94.5 µM.
As for `COc1ccc(N2C(=O)C(C)SC2c2cc3cc(Br)ccc3nc2Cl)cc1` (configuration not stated), the TGI in assay [1] is greater than 100 µM; in assay [2], greater than 100 µM; in assay [3] it was greater than 100 µM; in assay [4], 99.7 µM; in assay [5], 78.6 µM; in [6], greater than 100 µM. Moreover, the TGI was greater than 100 µM in assay [7]; greater than 100 µM in [8]; greater than 100 µM in assay [9]; 82.9 µM in assay [10]; greater than 100 µM in assay [11]; greater than 100 µM in assay [12]. Besides, the TGI in [13], in assay [14], in assay [16], in assay [17], in assay [18] and in assay [19] was greater than 100 µM throughout.
For the compound `Nc1nc2n[nH]nc2c(=O)[nH]1`, the TGI in assay [1] was 9.42 µM; in assay [2], greater than 100 µM; in assay [3], 56.2 µM; in [4], 37.8 µM; in assay [5], 40.9 µM; in assay [6], greater than 57.5 µM. For the same compound, the TGI in assay [7] is 15.7 µM; in assay [8], greater than 100 µM; in [9], greater than 100 µM; in assay [10] it was 38.5 µM; in [11], greater than 100 µM; in assay [12], 2.98 µM. The TGI in [13] was greater than 100 µM; in assay [14], greater than 100 µM; in assay [15], greater than 100 µM; in assay [16], 15.4 µM; in assay [17] it was greater than 89.4 µM; in assay [18], greater than 88.4 µM. Further, the TGI in assay [19] was greater than 66.8 µM.
Turning to `O=C(O)NCC1CCCCC1` (tested in a mixture with another compound), the TGI was 33.8 µM in assay [1]; greater than 100 µM in assay [2]; 63.2 µM in assay [3]; 72.6 µM in [4]; 28 µM in assay [5]; 50.7 µM in assay [6]. The TGI in [7] was 9.73 µM; in assay [8] it was greater than 100 µM; in assay [9], 23.3 µM; in [10], 24.4 µM; in assay [11], 63.6 µM; in assay [12] it was greater than 100 µM. Besides, the TGI is 52.4 µM in assay [13]; 29.7 µM in [14]; 20.3 µM in assay [15]; 47.7 µM in [16]; 26.1 µM in assay [17]; greater than 100 µM in assay [18]. Moreover, the TGI in assay [19] was found to be 36.6 µM.
Turning to `N#Cc1cc(-c2nc3c(F)cccc3s2)ccc1N`, the TGI in assay [1], in [2], in assay [3], in assay [4], in [5] and in assay [6] was greater than 100 µM each time. The TGI in [7], in assay [8], in assay [9], in [10], in [11] and in assay [12] was greater than 100 µM each time. Moreover, the TGI in assay [13], in assay [14], in assay [15], in assay [16], in assay [17] and in [18] was greater than 100 µM in each case. Also, the TGI in assay [19] is greater than 100 µM.
